System: 422866-222-R5-J1-PDC complex spheroid viability
Test: Anticancer human tumor 422866-222-R5-J1-PDC patient-derived pancreatic adenocarcinoma cell line growth inhibition [POLQ]
Conditions: for IC50: curve of first compound; for viability, T/C: stronger effect = lower value
Outline: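 PDC + HUVEC + MSC complex spheroids; POLQ inhibitors ± partner drugs; top conc. at/near clinical Cmax, else 10 microM (SN-38 1 microM), half-log dilutions; 37 degrees C, 5% CO2.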

[1] = second compound 0.0316 µM, first compound 0.00316 µM
[2] = second compound 0.0316 µM, first compound 0.01 µM
[3] = second compound 0.0316 µM, first compound 0.0316 µM
[4] = second compound 0.0316 µM, first compound 0.1 µM
[5] = second compound 0.0316 µM, first compound 0.316 µM
[6] = second compound 0.0316 µM, first compound 1 µM
[7] = second compound 0.1 µM, first compound 0.00316 µM
[8] = second compound 0.1 µM, first compound 0.01 µM
[9] = second compound 0.1 µM, first compound 0.0316 µM
[10] = second compound 0.1 µM, first compound 0.1 µM
[11] = second compound 0.1 µM, first compound 0.316 µM
[12] = second compound 0.1 µM, first compound 1 µM
[13] = second compound 0.316 µM, first compound 0.00316 µM
[14] = second compound 0.316 µM, first compound 0.01 µM
[15] = second compound 0.316 µM, first compound 0.0316 µM
[16] = second compound 0.316 µM, first compound 0.1 µM
[17] = second compound 0.316 µM, first compound 0.316 µM
[18] = second compound 0.316 µM, first compound 1 µM
[19] = second compound 1 µM, first compound 0.00316 µM
[20] = second compound 1 µM, first compound 0.01 µM
[21] = second compound 1 µM, first compound 0.0316 µM
[22] = second compound 1 µM, first compound 0.1 µM
[23] = second compound 1 µM, first compound 0.316 µM
[24] = second compound 1 µM, first compound 1 µM
[25] = second compound 3.16 µM, first compound 0.00316 µM
[26] = second compound 3.16 µM, first compound 0.01 µM
[27] = second compound 3.16 µM, first compound 0.0316 µM
[28] = second compound 3.16 µM, first compound 0.1 µM
[29] = second compound 3.16 µM, first compound 0.316 µM
[30] = second compound 3.16 µM, first compound 1 µM
[31] = second compound 10 µM, first compound 0.00316 µM
[32] = second compound 10 µM, first compound 0.01 µM
[33] = second compound 10 µM, first compound 0.0316 µM
[34] = second compound 10 µM, first compound 0.1 µM
[35] = second compound 10 µM, first compound 0.316 µM
[36] = second compound 10 µM, first compound 1 µM
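Also: spheroids exposed to compounds for one week before readout.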
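For viability, T/C in this document: percent of DMSO vehicle wells luminescence so 100% = untreated viability.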

C=CCn1c(=O)c2cnc(Nc3ccc(N4CCN(C)CC4)cc3)nc2n1-c1cccc(C(C)(C)O)n1 + Cc1cccc(N(C)C(=O)C2C(O)CCN2c2nc(C)cc(C(F)(F)F)c2C#N)c1
IC50 (second compound 0.0316 µM): 0.298 µM
IC50 (second compound 0.1 µM): 0.289 µM
IC50 (second compound 0.316 µM): 0.299 µM
IC50 (second compound 1 µM): 0.257 µM
IC50 (second compound 3.16 µM): 0.423 µM
IC50 (second compound 10 µM): 0.277 µM
viability, T/C [1]: 107%
viability, T/C [2]: 96.1%
viability, T/C [3]: 110%
viability, T/C [4]: 89.1%
viability, T/C [5]: 48.4%
viability, T/C [6]: 33.3%
viability, T/C [7]: 93%
viability, T/C [8]: 93.8%
viability, T/C [9]: 101%
viability, T/C [10]: 85.8%
viability, T/C [11]: 47.1%
viability, T/C [12]: 35.1%
viability, T/C [13]: 108%
viability, T/C [14]: 97.3%
viability, T/C [15]: 105%
viability, T/C [16]: 97.1%
viability, T/C [17]: 47.5%
viability, T/C [18]: 31.3%
viability, T/C [19]: 110%
viability, T/C [20]: 85.1%
viability, T/C [21]: 104%
viability, T/C [22]: 83.8%
viability, T/C [23]: 42.8%
viability, T/C [24]: 32.3%
viability, T/C [25]: 98.4%
viability, T/C [26]: 87.2%
viability, T/C [27]: 91.6%
viability, T/C [28]: 100%
viability, T/C [29]: 54.8%
viability, T/C [30]: 35.7%
viability, T/C [31]: 104%
viability, T/C [32]: 95.8%
viability, T/C [33]: 97.3%
viability, T/C [34]: 75.3%
viability, T/C [35]: 46.6%
viability, T/C [36]: 40.4%

CC[C@@]1(O)C(=O)OCc2c1cc1n(c2=O)Cc2cc3c(CN(C)C)c(O)ccc3nc2-1 + Cc1cccc(N(C)C(=O)C2C(O)CCN2c2nc(C)cc(C(F)(F)F)c2C#N)c1
IC50 (second compound 0.0316 µM): 0.0307 µM
IC50 (second compound 0.1 µM): 0.0241 µM
IC50 (second compound 0.316 µM): 0.0312 µM
IC50 (second compound 1 µM): 0.047 µM
IC50 (second compound 3.16 µM): 0.0259 µM
IC50 (second compound 10 µM): 0.0313 µM
viability, T/C (second compound 0.0316 µM, first compound 0.000316 µM): 104%
viability, T/C (second compound 0.0316 µM, first compound 0.001 µM): 101%
viability, T/C [1]: 85.7%
viability, T/C [2]: 75.7%
viability, T/C [3]: 42.5%
viability, T/C [4]: 45.5%
viability, T/C (second compound 0.1 µM, first compound 0.000316 µM): 105%
viability, T/C (second compound 0.1 µM, first compound 0.001 µM): 104%
viability, T/C [7]: 97%
viability, T/C [8]: 62.6%
viability, T/C [9]: 46.2%
viability, T/C [10]: 44.4%
viability, T/C (second compound 0.316 µM, first compound 0.000316 µM): 114%
viability, T/C (second compound 0.316 µM, first compound 0.001 µM): 105%
viability, T/C [13]: 98.2%
viability, T/C [14]: 87.5%
viability, T/C [15]: 47.6%
viability, T/C [16]: 46.3%
viability, T/C (second compound 1 µM, first compound 0.000316 µM): 114%
viability, T/C (second compound 1 µM, first compound 0.001 µM): 111%
viability, T/C [19]: 91%
viability, T/C [20]: 77.5%
viability, T/C [21]: 53.5%
viability, T/C [22]: 41.1%
viability, T/C (second compound 3.16 µM, first compound 0.000316 µM): 96.2%
viability, T/C (second compound 3.16 µM, first compound 0.001 µM): 108%
viability, T/C [25]: 98.9%
viability, T/C [26]: 80.3%
viability, T/C [27]: 40.8%
viability, T/C [28]: 46.6%
viability, T/C (second compound 10 µM, first compound 0.000316 µM): 82%
viability, T/C (second compound 10 µM, first compound 0.001 µM): 106%
viability, T/C [31]: 102%
viability, T/C [32]: 77%
viability, T/C [33]: 50.7%
viability, T/C [34]: 48.8%

CNCc1ccc(-c2[nH]c3cc(F)cc4c3c2CCNC4=O)cc1 + Cc1cccc(N(C)C(=O)C2C(O)CCN2c2nc(C)cc(C(F)(F)F)c2C#N)c1
IC50 (second compound 0.0316 µM): > 10 µM
IC50 (second compound 0.1 µM): > 10 µM
IC50 (second compound 0.316 µM): > 10 µM
IC50 (second compound 1 µM): > 10 µM
IC50 (second compound 3.16 µM): > 10 µM
IC50 (second compound 10 µM): > 10 µM
viability, T/C [3]: 105%
viability, T/C [4]: 88.9%
viability, T/C [5]: 91.2%
viability, T/C [6]: 99.3%
viability, T/C (second compound 0.0316 µM, first compound 3.16 µM): 89.6%
viability, T/C (second compound 0.0316 µM, first compound 10 µM): 85.5%
viability, T/C [9]: 94.8%
viability, T/C [10]: 86.7%
viability, T/C [11]: 85.6%
viability, T/C [12]: 86%
viability, T/C (second compound 0.1 µM, first compound 3.16 µM): 101%
viability, T/C (second compound 0.1 µM, first compound 10 µM): 108%
viability, T/C [15]: 88.3%
viability, T/C [16]: 97.1%
viability, T/C [17]: 88%
viability, T/C [18]: 85%
viability, T/C (second compound 0.316 µM, first compound 3.16 µM): 80.9%
viability, T/C (second compound 0.316 µM, first compound 10 µM): 89.6%
viability, T/C [21]: 103%
viability, T/C [22]: 85.6%
viability, T/C [23]: 93.3%
viability, T/C [24]: 85.3%
viability, T/C (second compound 1 µM, first compound 3.16 µM): 86.7%
viability, T/C (second compound 1 µM, first compound 10 µM): 89.7%
viability, T/C [27]: 96.4%
viability, T/C [28]: 83.9%
viability, T/C [29]: 87.6%
viability, T/C [30]: 80.8%
viability, T/C (second compound 3.16 µM, first compound 3.16 µM): 79.8%
viability, T/C (second compound 3.16 µM, first compound 10 µM): 87.3%
viability, T/C [33]: 102%
viability, T/C [34]: 107%
viability, T/C [35]: 88%
viability, T/C [36]: 76.6%
viability, T/C (second compound 10 µM, first compound 3.16 µM): 85.8%
viability, T/C (second compound 10 µM, first compound 10 µM): 67.1%

From PubChem BioAssay AID1963844 (Molecular Pharmacology Branch, DTP, NCI, 2024)
